Test: Measurement of logP values by HPLC on reversed phase columns (EEC directive 79/831 Annex V.A8)
Type: physicochemical
Conditions: method [a]: pH 2.3 with 0.1% phosphoric acid and acetonitrile as eluent
For `O=C(Cc1ccccc1)Nc1ccnc(CON=C(c2ccccc2)c2nsnc2C(F)(F)F)n1` [Example 15], the logp was 4.09^[a].
For `CC(C)CC(=O)Nc1ccnc(CON=C(c2ccccc2)c2nsnc2C(F)(F)F)n1` [Example 14], the logp was 4.09^[a].
For `O=C1c2ccccc2C(=O)N1c1cccc(CON=C(c2ccccc2)c2nsnc2C(F)(F)F)n1` [Example 18], the logp was 4.31^[a].
For `Nc1ccnc(CON=C(c2ccccc2)c2nsnc2C(F)(F)F)n1` [Example 8], the logp was 1.75^[a].
With `COCCOCC(=O)Nc1ccnc(CON=C(c2ccccc2)c2nsnc2C(F)(F)F)n1` [Example 13] the logp was 3.46^[a].
With `CCCCCC(=O)Nc1ccnc(CON=C(c2ccccc2)c2nsnc2C(F)(F)F)n1` [Example 17] the logp was 4.54^[a].
In the case of `O=C(CCCc1ccccc1)Nc1ccnc(CON=C(c2ccccc2)c2nsnc2C(F)(F)F)n1` [Example 12], the logp is reported as 4.65^[a].
With `Nc1nc(CON=C(c2ccccc2)c2nsnc2C(F)(F)F)cs1` [Example 10] the logp was 2.26^[a].
For `CC(C)(C)C(=O)Nc1ccnc(CON=C(c2ccccc2)c2nsnc2C(F)(F)F)n1` [Example 16], the logp was 4.24^[a].
In the case of `CCCCCOC(=O)Nc1ccnc(CON=C(c2ccccc2)c2nsnc2C(F)(F)F)n1` [Example 9], the logp is reported as 4.92^[a].
With `O=C(Nc1ccnc(CON=C(c2ccccc2)c2nsnc2C(F)(F)F)n1)c1ccccc1` [Example 11] the logp was 4.14^[a].

Same assay, conditions: method [b]: LC-MS at pH 2.7 with 0.1% formic acid in water and acetonitrile, linear gradient 10% to 95% acetonitrile
For `Cn1nccc1C(=NOCc1csc(NC(=O)OCCCCCl)n1)c1ccccc1` [Example 57], the logp was 3.65^[b].
With `CCCCC(=O)Nc1nc(CON=C(c2ccccc2)c2ccnn2C)cs1` [Example 55] the logp was 3.39^[b].
For `Cn1nccc1C(=NOCc1csc(NC(=O)CCc2ccccc2)n1)c1ccccc1` [Example 51], the logp was 3.69^[b].
For `C=CCCOC(=O)Nc1cccc(CON=C(c2ccccc2)c2nsnc2C)n1` [Example 24], the logp was 4.65^[b].
With `C#CCCOC(=O)Nc1nc(CON=C(c2ccccc2)c2ccnn2C)cs1` [Example 61] the logp was 3.11^[b].
In the case of `CCCCCCCOC(=O)Nc1cccc(CON=C(c2ccccc2)c2nsnc2C)n1` [Example 26], the logp is reported as 6.42^[b].
For `Cn1nccc1C(=NOCc1csc(N)n1)c1ccccc1` [Example 48], the logp was 1.5^[b].
With `Cc1nsnc1C(=NOCc1cccc(NC(=O)OCCCCC(F)(F)F)n1)c1ccccc1` [Example 28] the logp was 4.97^[b].
In the case of `Cn1nccc1C(=NOCc1csc(NC(=O)COc2ccccc2)n1)c1ccccc1` [Example 50], the logp is reported as 3.55^[b].
In the case of `CCCCCCNc1cccc(CON=C(c2ccccc2)c2nonc2C)n1` [Example 43], the logp is reported as 3.31^[b].
With `C=CCCCCNc1cccc(CON=C(c2ccccc2)c2nsnc2C)n1` [Example 35] the logp was 2.78^[b].
In the case of `CCCCOC(=O)Nc1nc(CON=C(c2ccccc2)c2ccnn2C)cs1` [Example 58], the logp is reported as 3.76^[b].
With `CCCCCCOC(=O)Nc1cccc(CON=C(c2ccccc2)c2nsnc2C)n1` [Example 23] the logp was 5.99^[b].
In the case of `CCCCC#Cc1nc(CON=C(c2cccc(F)c2)c2nonc2C)cs1` [Example 46], the logp is reported as 5.59^[b].
In the case of `CCCCC#Cc1nc(CON=C(c2ccc(F)cc2)c2nnsc2C)cs1` [Example 5], the logp is reported as 5.19^[b].
With `CCCCCCC(=O)Nc1nc(CON=C(c2ccccc2)c2ccnn2C)cs1` [Example 56] the logp was 4.18^[b].
In the case of `CCCCCCNc1cccc(CON=C(c2cccc(F)c2)c2nonc2C)n1` [Example 42], the logp is reported as 3.57^[b].
With `CCCCCOC(=O)Nc1cccc(CON=C(c2ccccc2)c2nsnc2C)n1` [Example 20] the logp was 5.5^[b].
For `CCCCC#Cc1nc(CON=C(c2ccc(F)cc2)c2nonc2C)cs1` [Example 44], the logp was 5.99^[b].
In the case of `CCCCNc1cccc(CON=C(c2ccccc2)c2nsnc2C)n1` [Example 32], the logp is reported as 2.41^[b].
In the case of `CCCCC#Cc1nc(CON=C(c2cccc(F)c2)c2nnsc2C)cs1` [Example 7], the logp is reported as 5.25^[b].
For `Cc1nsnc1C(=NOCc1cccc(NC(=O)OCc2ccccc2)n1)c1ccccc1` [Example 22], the logp was 4.92^[b].
In the case of `Cc1nsnc1C(=NOCc1cccc(NCCC2CCCCC2)n1)c1ccccc1` [Example 37], the logp is reported as 3.46^[b].
For `Cn1nccc1C(=NOCc1csc(C#CC2CC2)n1)c1ccccc1` [Example 62], the logp was 3.87^[b].
With `CCNc1cccc(CON=C(c2ccccc2)c2nsnc2C)n1` [Example 33] the logp was 1.89^[b].
With `Cc1nsnc1C(=NOCc1cccc(N(C(=O)OC(C)(C)C)C(=O)OC(C)(C)C)n1)c1ccccc1` [Example 29] the logp was 5.47^[b].
For `CCCCCCOC(=O)Nc1nc(CON=C(c2ccccc2)c2ccnn2C)cs1` [Example 59], the logp was 4.59^[b].
With `CCCCCCNc1cccc(CON=C(c2ccccc2)c2nsnc2C(F)(F)F)n1` [Example 39] the logp was 3.44^[b].
In the case of `CCCCC#Cc1nc(CON=C(c2ccccc2)c2nonc2C)cs1` [Example 45], the logp is reported as 5.51^[b].
With `CCCCCOC(=O)Nc1nc(CON=C(c2ccccc2)c2ccnn2C)cs1` [Example 60] the logp was 4.16^[b].
In the case of `Cn1nccc1C(=NOCc1csc(NC(=O)Cc2ccccc2)n1)c1ccccc1` [Example 53], the logp is reported as 3.42^[b].
With `CCCCC#Cc1nc(CON=C(c2ccccc2)c2nsnc2C(F)(F)F)cs1` [Example 40] the logp was 6.37^[b].
In the case of `CCCCCC(=O)Nc1nc(CON=C(c2ccccc2)c2ccnn2C)cs1` [Example 52], the logp is reported as 3.8^[b].
In the case of `Cn1nccc1C(=NOCc1csc(NC(=O)OC(C)(C)C)n1)c1ccccc1` [Example 63], the logp is reported as 3.69^[b].
With `CCCCC#Cc1nc(CON=C(c2ccccc2F)c2nonc2C)cs1` [Example 47] the logp was 5.39^[b].
For `CCCCC#Cc1nc(CON=C(c2ccc(Cl)cc2)c2nnsc2C)cs1` [Example 4], the logp was 5.68^[b].
For `CCCCC#Cc1nc(CON=C(c2ccccc2)c2nsnc2C)cs1` [Example 41], the logp was 5.72^[b].
In the case of `Cc1nsnc1C(=NOCc1cccc(NCCCc2ccccc2)n1)c1ccccc1` [Example 36], the logp is reported as 2.98^[b].
For `CCOC(=O)Nc1nc(CON=C(c2ccccc2)c2ccnn2C)cs1` [Example 64], the logp was 3^[b].
For `Cn1nccc1C(=NOCc1csc(NC(=O)C(C)(C)C)n1)c1ccccc1` [Example 54], the logp was 3.46^[b].
With `Cn1nccc1C(=NOCc1csc(Br)n1)c1ccccc1` [Example 49] the logp was 3.39^[b].
In the case of `CCCCC(CC)COC(=O)Nc1cccc(CON=C(c2ccccc2)c2nsnc2C)n1` (stereo not shown) [Example 27], the logp is reported as 6.76^[b].
In the case of `CCCNc1cccc(CON=C(c2ccccc2)c2nsnc2C)n1` [Example 34], the logp is reported as 2.11^[b].
In the case of `CCCCCNc1cccc(CON=C(c2ccccc2)c2nsnc2C)n1` [Example 38], the logp is reported as 2.7^[b].
With `Cc1nsnc1C(=NOCc1cccc(NC(=O)OC2CCCC2)n1)c1ccccc1` [Example 21] the logp was 5.11^[b].

Same assay, conditions: reversed phase HPLC column; HCOOH (formic acid) method; read-out: log P(HCOOH)
`Cc1nsnc1C(=NO)c1ccccc1` [N-hydroxy-1-(4-methyl-1,2,5-thiadiazol-3-yl)-1-phenylmethanimine] showed a chromatographic logP of 2.26.
`CCCCC#Cc1nc(CON=C(c2cccc(Cl)c2)c2nnsc2C)cs1` [Example 6, 1-(3-chlorophenyl)-N-([2-(hex-1-yn-1-yl)-1,3-thiazol-4-yl]methoxy)-1-(5-methyl-1,2,3-thiadiazol-4-yl)methanimine] gave a chromatographic logP of 5.68.
Work on `O=C1c2ccccc2C(=O)N1OCc1csc(Br)n1` [2-[(2-bromo-1,3-thiazol-4-yl)methoxy]-1H-isoindole-1,3(2H)-dione] yielded a chromatographic logP of 2.39.
`CCCCC#Cc1nc(CON2C(=O)c3ccccc3C2=O)cs1` [2-{[2-(hex-1-yn-1-yl)-1,3-thiazol-4-yl]methoxy}-1H-isoindole-1,3(2H)-dione] gave a chromatographic logP of 3.78.
Molecule `Cc1nsnc1C(=NOCc1cccc(NC(=O)OC(C)(C)C)n1)c1ccccc1` [Example 30, tert-butyl {6-[({[(4-methyl-1,2,5-thiadiazol-3-yl)(phenyl)methylene]-amino}oxy)methyl]pyridin-2-yl}carbamate] has a chromatographic logP of 4.97.
`CCCCCCN(C(=O)OC(C)(C)C)c1cccc(CON2C(=O)c3ccccc3C2=O)n1` showed a chromatographic logP of 5.48.
`Cc1nsnc1/C(=N\OCc1cccc(N)n1)c1ccccc1` [6-[({[(Z)-(4-methyl-1,2,5-thiadiazol-3-yl)(phenyl)methylene]amino}oxy)-methyl]pyridin-2-amine] gave a chromatographic logP of 1.54.
Molecule `Cc1nsnc1/C(=N\OCc1cccc(N2C(=O)c3ccccc3C2=O)n1)c1ccccc1` [2-{6-[({[(Z)-(4-methyl-1,2,5-thiadiazol-3-yl)(phenyl)methylene]amino}-oxy)methyl]pyridin-2-yl}-1H-isoindole-1,3(2H)-dione] has a chromatographic logP of 3.99.
With `CC#CCOC(=O)Nc1cccc(CON=C(c2ccccc2)c2nsnc2C)n1` [Example 25, But-2-yn-1-yl {6-[({[(4-methyl-1,2,5-thiadiazol-3-yl)(phenyl)methylidene]amino}oxy)-methyl]pyridin-2-yl}carbamate] the chromatographic logP was 4.28.
Work on `CCCCCCNc1cccc(CON=C(c2cccc(F)c2)c2nnsc2C)n1` [Example 1, 6-[({[(3-fluorophenyl)(5-methyl-1,2,3-thiadiazol-4-yl)methylene]amino}oxy)methyl]-N-hexylpyridin-2-amine] yielded a chromatographic logP of 3.06.
For `CCCCCCNc1cccc(CON=C(c2ccccc2)c2nsnc2C)n1` [Example 31, N-hexyl-6-[({[(4-methyl-1,2,5-thiadiazol-3-yl)(phenyl)methylidene]amino}oxy)methyl]-pyridin-2-amine], the chromatographic logP was 3.11.
With `CCCCCCN(C(=O)OC(C)(C)C)c1cccc(CO)n1` [tert-butyl hexyl[6-(hydroxymethyl)pyridin-2-yl]carbamate] the chromatographic logP was 3.94.
For `Nc1nc(CON2C(=O)c3ccccc3C2=O)cs1` [2-[(2-amino-1,3-thiazol-4-yl)methoxy]-1H-isoindole-1,3(2H)-dione], the chromatographic logP was 0.74.
Work on `CCCCC#Cc1nc(CON)cs1` [4-[(aminooxy)methyl]-2-(hex-1-yn-1-yl)-1,3-thiazole] yielded a chromatographic logP of 1.76.
Molecule `CCCCCCN(C(=O)OC(C)(C)C)c1cccc(CON)n1` has a chromatographic logP of 3.42.

Same assay, conditions: reversed phase HPLC column; method [b]: LC-MS at pH 2.7 with 0.1% formic acid in water and acetonitrile, linear gradient 10% to 95% acetonitrile; read-out: logp
For `CCCCC#Cc1nc(CON=C(c2cccc(Cl)c2)c2nnsc2C)cs1` [Example 6, 1-(3-chlorophenyl)-N-([2-(hex-1-yn-1-yl)-1,3-thiazol-4-yl]methoxy)-1-(5-methyl-1,2,3-thiadiazol-4-yl)methanimine], the chromatographic logP was 5.68.
Work on `Cc1nsnc1C(=NOCc1cccc(NC(=O)OC(C)(C)C)n1)c1ccccc1` [Example 30, tert-butyl {6-[({[(4-methyl-1,2,5-thiadiazol-3-yl)(phenyl)methylene]-amino}oxy)methyl]pyridin-2-yl}carbamate] yielded a chromatographic logP of 4.97.
For `CC#CCOC(=O)Nc1cccc(CON=C(c2ccccc2)c2nsnc2C)n1` [Example 25, But-2-yn-1-yl {6-[({[(4-methyl-1,2,5-thiadiazol-3-yl)(phenyl)methylidene]amino}oxy)-methyl]pyridin-2-yl}carbamate], the chromatographic logP was 4.28.
`CCCCCCNc1cccc(CON=C(c2cccc(F)c2)c2nnsc2C)n1` [Example 1, 6-[({[(3-fluorophenyl)(5-methyl-1,2,3-thiadiazol-4-yl)methylene]amino}oxy)methyl]-N-hexylpyridin-2-amine] showed a chromatographic logP of 3.06.
With `CCCCCCNc1cccc(CON=C(c2ccccc2)c2nsnc2C)n1` [Example 31, N-hexyl-6-[({[(4-methyl-1,2,5-thiadiazol-3-yl)(phenyl)methylidene]amino}oxy)methyl]-pyridin-2-amine] the chromatographic logP was 3.11.

From patent US8580799B2 (priority 2008, dated 2013)
